Measurements as given in the supplement of paper PMC10307832.

Experiments:
Test in all cases: relative viability (nuclei count vs DMSO), 5 days (fraction); higher = more cells survive
[1] = compound: Cn1cc(-c2cnn3c(N)c(Br)c([C@@H]4CCCNC4)nc23)cn1 + O=C(CCCCCCC(=O)Nc1ccccc1)NO [Vorinostat] (partner 1 µM)
In short: (§1)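 Lung cancer cell lines, seeded in 1536-well plates, were treated the following day by pin tool with a single drug or with five library-drug doses (not always all listed) in √10 steps on top of a fixed anchor-drug dose. Cells were fixed and nuclei stained in one step after 5 days, and nuclei were counted. Relative viability is the nuclei count for treated wells divided by that for vehicle wells, reported as medians of duplicate plates.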

[2] = compound: Cn1cc(-c2cnn3c(N)c(Br)c([C@@H]4CCCNC4)nc23)cn1 + CC1(C)CCC(c2ccc(Cl)cc2)=C(CN2CCN(c3ccc(C(=O)NS(=O)(=O)c4ccc(N[C@H](CCN5CCOCC5)CSc5ccccc5)c(S(=O)(=O)C(F)(F)F)c4)cc3)CC2)C1 [Navitoclax] (partner 0.5 µM)
In short: as §1

[3] = compound: Cn1cc(-c2cnn3c(N)c(Br)c([C@@H]4CCCNC4)nc23)cn1 + Cc1cc(Nc2cc(N3CCN(C)CC3)nc(Sc3ccc(NC(=O)C4CC4)cc3)n2)n[nH]1 [Tozasertib] (partner 0.1 µM)
In short: as §1

[4] = compound: Cn1cc(-c2cnn3c(N)c(Br)c([C@@H]4CCCNC4)nc23)cn1 + C[C@@H](Oc1cc(-c2cnn(C3CCNCC3)c2)cnc1N)c1c(Cl)ccc(F)c1Cl [Crizotinib] (partner 1 µM)
In short: as §1

Cell Line	relative viability ([1]; first compound 0.05 µM)	relative viability ([1]; first compound 0.1581 µM)	relative viability ([1]; first compound 0.5 µM)	relative viability ([1]; first compound 1.581 µM)	relative viability ([1]; first compound 5 µM)	relative viability ([2]; first compound 0.05 µM)	relative viability ([2]; first compound 0.1581 µM)	relative viability ([2]; first compound 0.5 µM)	relative viability ([2]; first compound 1.581 µM)	relative viability ([2]; first compound 5 µM)	relative viability ([3]; first compound 0.05 µM)	relative viability ([3]; first compound 0.1581 µM)	relative viability ([3]; first compound 0.5 µM)	relative viability ([3]; first compound 1.581 µM)	relative viability ([3]; first compound 5 µM)	relative viability ([4]; first compound 0.05 µM)	relative viability ([4]; first compound 0.1581 µM)	relative viability ([4]; first compound 0.5 µM)	relative viability ([4]; first compound 1.581 µM)	relative viability ([4]; first compound 5 µM)
CAL-12T	0.848	0.775	0.664	0.56	0.228	1.36	1.24	1.12	0.755	0.159	0.38	0.326	0.255	0.174	0.113	0.612	0.459	0.485	0.321	0.176
EPLC-272H	0.571	0.275	0.239	0.266	0.15	1.2	1.1	1.2	0.966	0.969	0.252	0.249	0.25	0.247	0.226	0.943	1.07	1	0.945	0.826
NCI-H2405	0.962	1.01	0.951	0.847	0.668	0.815	0.976	0.904	0.867	0.624	0.733	0.784	0.723	0.743	0.498	0.884	0.849	0.794	0.765	0.611
HCC-15	0.922	1	0.9	0.804	0.705	0.803	0.792	0.635	0.626	0.669	0.401	0.392	0.386	0.256	0.212	0.926	0.98	0.877	0.722	0.652
PC-3 [JPC-3]	0.656	0.747	–	0.834	0.566	0.75	0.899	0.735	0.832	0.899	0.812	0.986	0.94	0.75	0.91	1	1.01	1.02	0.835	1.12
NCI-H1944	0.566	0.575	0.463	0.452	0.219	0.92	1.01	1.05	1.01	0.858	0.263	0.273	0.255	0.241	0.21	0.951	1.21	1.09	0.931	0.717
HARA	0.62	0.511	0.511	0.433	0.556	1.11	1.21	1.25	1.05	0.725	0.115	0.616	0.0879	0.0826	0.0524	0.935	1.12	0.987	0.842	0.369
NCI-H2126	0.694	0.788	0.762	0.683	0.68	0.915	0.883	0.861	0.804	0.863	0.809	0.819	0.774	0.611	0.644	1.1	1.09	1.07	0.932	1.03
LXF-289	0.731	0.795	0.745	0.746	0.757	0.96	1.06	1.07	0.906	1.02	0.209	0.219	0.189	0.168	0.162	0.82	0.929	0.945	0.81	0.807
NCI-H460	0.926	1.1	0.245	0.405	0.111	1.04	1.32	0.972	0.749	0.448	0.421	0.482	0.537	0.475	0.222	1.01	1.36	1.03	0.842	0.3
NCI-H2170	0.826	0.882	0.659	0.796	0.989	0.584	0.554	0.453	0.527	0.713	0.78	0.789	0.644	0.894	0.855	1.19	1.21	1.19	1.16	1.12
NCI-H2009	0.82	0.806	0.722	0.818	0.528	1.16	1.28	1.1	1.1	1	0.745	0.702	0.651	0.565	0.448	1.05	1.03	1.08	0.881	0.678
